A short description of the data set: Solubility of butixocort propionate in propellants and propellant/ethanol blends. It counts as physicochemical. The method, then:
Solubility of butixocort propionate in P134a, P227, and blends thereof with ethanol, was determined as follows: Drug and the selected propellant system were combined and agitated for a period of seven days at a selected temperature to afford a saturated solution. The solid was filtered off and the supernatant was weighed. The propellant was removed by evaporation and the drug was reconstituted quantitatively. The concentration of the drug in the reconstituted solution was determined and from this the mount and concentration of drug dissolved in the propellant system was calculated. TABLES 1 and 2 show the average of three independent determinations.

Values after ≈ are worked out from the molar mass of the structure shown.

As a reminder, the solubility is the concentration that dissolves in the medium under given conditions. For the compound `CCCC(=O)O[C@]1(C(=O)CSC(=O)CC)CC[C@H]2[C@@H]3CCC4=CC(=O)CC[C@]4(C)[C@H]3[C@@H](O)C[C@@]21C` [Butixocort propionate, 11-beta-hydroxypregn-4-ene-3,20-dione-21-thiopropionate-17-butyrate], the “solubility in HFA 134a” value (HFA 134a, 20° C.) is listed as “about 0.02 % by weight”. The “solubility in HFA 227” value (HFA 227, 20° C.) is on record as “about 0.03 % by weight”. The solubility at 168 h (propellant 134a, 0% ethanol, organic solvent or mixture, 0 weight % ethanol, 20°C, Table 2, average of three determinations) worked out at 300 µg/mL (≈ 594 µM); the solubility at 168 h (propellant 134a, 1% ethanol, organic solvent or mixture, 1 weight % ethanol, 20°C, Table 2) was 751 µg/mL (≈ 1490 µM); the solubility at 168 h (propellant 134a, 2.5% ethanol, organic solvent or mixture, 2.5 weight % ethanol, 20°C, Table 2) was 1760 µg/mL (≈ 3480 µM); the solubility at 168 h (propellant 134a, 5% ethanol, organic solvent or mixture, 5 weight % ethanol, 20°C, Table 2) was 4180 µg/mL (≈ 8280 µM); the solubility at 168 h (propellant 134a, 7.5% ethanol, organic solvent or mixture, 7.5 weight % ethanol, 20°C, Table 2) is 6960 µg/mL (≈ 13800 µM); the solubility at 168 h (propellant 134a, 10% ethanol, organic solvent or mixture, 10 weight % ethanol, 20°C, Table 2) came out at 9630 µg/mL (≈ 19100 µM). Further, the solubility at 168 h reads like this: (propellant 134a, organic solvent or mixture, 4 °C, Table 1, average of three determinations) 103 µg/mL (≈ 204 µM); (propellant 134a, organic solvent or mixture, 20 °C, Table 1, average of three determinations) 203 µg/mL (≈ 402 µM); (propellant 134a, organic solvent or mixture, 30 °C, Table 1, average of three determinations) 300 µg/mL (≈ 594 µM); (propellant 134a, organic solvent or mixture, 40 °C, Table 1, average of three determinations) 319 µg/mL (≈ 632 µM); (propellant 227, 0% ethanol, organic solvent or mixture, Propellant 227, 0 weight % ethanol, 20°C, Table 2, average of three determinations) 395 µg/mL (≈ 783 µM); (propellant 227, 1% ethanol, organic solvent or mixture, Propellant 227, 1 weight % ethanol, 20°C, Table 2) 971 µg/mL (≈ 1920 µM). Moreover, the solubility at 168 h was determined as 1110 µg/mL (≈ 2210 µM) (propellant 227, 2.5% ethanol, organic solvent or mixture, Propellant 227, 2.5 weight % ethanol, 20°C, Table 2); 3850 µg/mL (≈ 7630 µM) (propellant 227, 5% ethanol, organic solvent or mixture, Propellant 227, 5 weight % ethanol, 20°C, Table 2); 6200 µg/mL (≈ 12300 µM) (propellant 227, 7.5% ethanol, organic solvent or mixture, Propellant 227, 7.5 weight % ethanol, 20°C, Table 2); 8520 µg/mL (≈ 16900 µM) (propellant 227, 10% ethanol, organic solvent or mixture, Propellant 227, 10 weight % ethanol, 20°C, Table 2); 261 µg/mL (≈ 517 µM) (propellant 227, organic solvent or mixture, Propellant 227, 4 °C, Table 1, average of three determinations); 285 µg/mL (≈ 565 µM) (propellant 227, organic solvent or mixture, Propellant 227, 20 °C, Table 1, average of three determinations). Also, the solubility at 168 h by setting is: (propellant 227, organic solvent or mixture, Propellant 227, 30 °C, Table 1, average of three determinations) 306 µg/mL (≈ 606 µM); (propellant 227, organic solvent or mixture, Propellant 227, 40 °C, Table 1, average of three determinations) 317 µg/mL (≈ 628 µM).

The record behind these values is patent US5653961A, “Butixocort aerosol formulations in hydrofluorocarbon propellant” (Minnesota Mining and Manufacturing Company, priority 1995, dated 1997).
